Results: PubChem BioAssay (NCI)
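Following 48 hours of exposure in 96-well plates, responses at five concentrations were used to interpolate endpoints linearly. TGI: concentration producing complete growth inhibition.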

Tests used:
Test in all cases: DTP human tumour cell line panel, 48 h
CAKI-1 renal = tested on: CAKI-1 renal
TK-10 renal = tested on: TK-10 renal
HT29 colon = tested on: HT29 colon
OVCAR-5 ovarian = tested on: OVCAR-5 ovarian
SK-MEL-28 melanoma = tested on: SK-MEL-28 melanoma
RPMI-8226 leukemia = tested on: RPMI-8226 leukemia
IGROV1 ovarian = tested on: IGROV1 ovarian
A549 NSCLC = tested on: A549 NSCLC
ACHN renal = tested on: ACHN renal
MCF7 breast = tested on: MCF7 breast
HCC-2998 colon = tested on: HCC-2998 colon
U251 CNS = tested on: U251 CNS
NCI-H460 lung = tested on: NCI-H460 lung
MOLT-4 leukemia = tested on: MOLT-4 leukemia
SW-620 colon = tested on: SW-620 colon
HOP-92 NSCLC = tested on: HOP-92 NSCLC
SR leukemia = tested on: SR leukemia
CCRF-CEM leukemia = tested on: CCRF-CEM leukemia
COLO 205 colon = tested on: COLO 205 colon
SN12C renal = tested on: SN12C renal
OVCAR-3 ovarian = tested on: OVCAR-3 ovarian
SK-MEL-2 melanoma = tested on: SK-MEL-2 melanoma
HCT-15 colon = tested on: HCT-15 colon
DU-145 prostate = tested on: DU-145 prostate
MDA-MB-231 breast = tested on: MDA-MB-231 breast
SNB-19 CNS = tested on: SNB-19 CNS
OVCAR-4 ovarian = tested on: OVCAR-4 ovarian
HOP-62 NSCLC = tested on: HOP-62 NSCLC
NCI-H23 lung = tested on: NCI-H23 lung
M14 melanoma = tested on: M14 melanoma
UACC-257 melanoma = tested on: UACC-257 melanoma
NCI-H522 lung = tested on: NCI-H522 lung
HS 578T breast = tested on: HS 578T breast
HCT-116 colon = tested on: HCT-116 colon
PC-3 prostate = tested on: PC-3 prostate
SK-OV-3 ovarian = tested on: SK-OV-3 ovarian
HL-60(TB) leukemia = tested on: HL-60(TB) leukemia
OVCAR-8 ovarian = tested on: OVCAR-8 ovarian
LOX IMVI melanoma = tested on: LOX IMVI melanoma
UO-31 renal = tested on: UO-31 renal
NCI/ADR-RES ovarian = tested on: NCI/ADR-RES ovarian
SK-MEL-5 melanoma = tested on: SK-MEL-5 melanoma
K-562 leukemia = tested on: K-562 leukemia
MDA-N = tested on: MDA-N
SNB-75 CNS = tested on: SNB-75 CNS
NCI-H226 lung = tested on: NCI-H226 lung
T-47D breast = tested on: T-47D breast
SF-295 CNS = tested on: SF-295 CNS
SF-539 CNS = tested on: SF-539 CNS
MALME-3M melanoma = tested on: MALME-3M melanoma
UACC-62 melanoma = tested on: UACC-62 melanoma
EKVX NSCLC = tested on: EKVX NSCLC
KM12 colon = tested on: KM12 colon
786-0 renal = tested on: 786-0 renal
SF-268 CNS = tested on: SF-268 CNS
A498 renal = tested on: A498 renal
RXF 393 renal = tested on: RXF 393 renal
MDA-MB-435 = tested on: MDA-MB-435

## COc1ccc([C@@H]2ON(C)[C@H]3CN(C)C(=O)[C@@H]23)cc1
CAKI-1 renal
  TGI: > 100 µM
TK-10 renal
  TGI: > 100 µM
HT29 colon
  TGI: > 100 µM
OVCAR-5 ovarian
  TGI: > 100 µM
SK-MEL-28 melanoma
  TGI: > 100 µM
RPMI-8226 leukemia
  TGI: > 100 µM
IGROV1 ovarian
  TGI: > 100 µM
A549 NSCLC
  TGI: > 100 µM
ACHN renal
  TGI: > 100 µM
MCF7 breast
  TGI: > 100 µM
HCC-2998 colon
  TGI: > 100 µM
U251 CNS
  TGI: > 100 µM
NCI-H460 lung
  TGI: > 100 µM
MOLT-4 leukemia
  TGI: > 100 µM
SW-620 colon
  TGI: > 100 µM
HOP-92 NSCLC
  TGI: > 100 µM
SR leukemia
  TGI: > 100 µM
CCRF-CEM leukemia
  TGI: > 100 µM
COLO 205 colon
  TGI: > 100 µM
SN12C renal
  TGI: > 100 µM
OVCAR-3 ovarian
  TGI: > 100 µM
SK-MEL-2 melanoma
  TGI: > 100 µM
HCT-15 colon
  TGI: > 100 µM
DU-145 prostate
  TGI: > 100 µM
MDA-MB-231 breast
  TGI: > 100 µM
SNB-19 CNS
  TGI: > 100 µM
OVCAR-4 ovarian
  TGI: > 100 µM
HOP-62 NSCLC
  TGI: > 100 µM
NCI-H23 lung
  TGI: > 100 µM
M14 melanoma
  TGI: > 100 µM
UACC-257 melanoma
  TGI: > 100 µM
NCI-H522 lung
  TGI: > 100 µM
HS 578T breast
  TGI: > 100 µM
HCT-116 colon
  TGI: > 100 µM
PC-3 prostate
  TGI: > 100 µM
SK-OV-3 ovarian
  TGI: > 100 µM
HL-60(TB) leukemia
  TGI: > 100 µM
OVCAR-8 ovarian
  TGI: > 100 µM
LOX IMVI melanoma
  TGI: > 100 µM
UO-31 renal
  TGI: > 100 µM
NCI/ADR-RES ovarian
  TGI: > 100 µM
SK-MEL-5 melanoma
  TGI: > 100 µM
K-562 leukemia
  TGI: > 100 µM
MDA-N
  TGI: > 100 µM
SNB-75 CNS
  TGI: > 100 µM
NCI-H226 lung
  TGI: > 100 µM
T-47D breast
  TGI: > 100 µM
SF-295 CNS
  TGI: > 100 µM

## CCOC(=O)/C(C(=S)Nc1ccccc1)=C(/N)N1CCCC1
CAKI-1 renal
  TGI: > 100 µM
TK-10 renal
  TGI: > 100 µM
HT29 colon
  TGI: > 100 µM
OVCAR-5 ovarian
  TGI: > 100 µM
SK-MEL-28 melanoma
  TGI: > 100 µM
RPMI-8226 leukemia
  TGI: > 100 µM
IGROV1 ovarian
  TGI: > 100 µM
A549 NSCLC
  TGI: > 100 µM
ACHN renal
  TGI: > 100 µM
MCF7 breast
  TGI: > 100 µM
HCC-2998 colon
  TGI: > 100 µM
SF-539 CNS
  TGI: > 100 µM
U251 CNS
  TGI: > 100 µM
MALME-3M melanoma
  TGI: > 100 µM
NCI-H460 lung
  TGI: > 100 µM
MOLT-4 leukemia
  TGI: > 100 µM
SW-620 colon
  TGI: > 100 µM
HOP-92 NSCLC
  TGI: 53.2 µM
UACC-62 melanoma
  TGI: > 100 µM
SR leukemia
  TGI: > 100 µM
CCRF-CEM leukemia
  TGI: > 100 µM
COLO 205 colon
  TGI: > 100 µM
SN12C renal
  TGI: > 100 µM
OVCAR-3 ovarian
  TGI: > 100 µM
SK-MEL-2 melanoma
  TGI: > 100 µM
EKVX NSCLC
  TGI: > 100 µM
HCT-15 colon
  TGI: > 100 µM
KM12 colon
  TGI: > 100 µM
DU-145 prostate
  TGI: > 100 µM
MDA-MB-231 breast
  TGI: > 100 µM
SNB-19 CNS
  TGI: > 100 µM
786-0 renal
  TGI: > 100 µM
OVCAR-4 ovarian
  TGI: > 100 µM
HOP-62 NSCLC
  TGI: > 100 µM
NCI-H23 lung
  TGI: > 100 µM
M14 melanoma
  TGI: > 100 µM
UACC-257 melanoma
  TGI: > 100 µM
SF-268 CNS
  TGI: > 100 µM
NCI-H522 lung
  TGI: > 100 µM
HS 578T breast
  TGI: > 100 µM
HCT-116 colon
  TGI: > 100 µM
PC-3 prostate
  TGI: > 100 µM
A498 renal
  TGI: > 100 µM
HL-60(TB) leukemia
  TGI: > 100 µM
OVCAR-8 ovarian
  TGI: > 100 µM
RXF 393 renal
  TGI: > 100 µM
LOX IMVI melanoma
  TGI: > 100 µM
UO-31 renal
  TGI: > 100 µM
NCI/ADR-RES ovarian
  TGI: > 100 µM
SK-MEL-5 melanoma
  TGI: > 100 µM
K-562 leukemia
  TGI: > 100 µM
MDA-N
  TGI: 84.9 µM
NCI-H226 lung
  TGI: > 100 µM
MDA-MB-435
  TGI: > 100 µM
SF-295 CNS
  TGI: > 100 µM
